Measured values from ChEMBL document CHEMBL5512696, “Discovery of a Novel ASM Direct Inhibitor with a 1,5-Diphenyl-pyrazole Scaffold and Its Antidepressant Mechanism of Action” (J Med Chem, 2024).

Target: T1, Sphingomyelin phosphodiesterase (Homo sapiens, UniProt P17405)
T1 sequence (P17405 whole entry): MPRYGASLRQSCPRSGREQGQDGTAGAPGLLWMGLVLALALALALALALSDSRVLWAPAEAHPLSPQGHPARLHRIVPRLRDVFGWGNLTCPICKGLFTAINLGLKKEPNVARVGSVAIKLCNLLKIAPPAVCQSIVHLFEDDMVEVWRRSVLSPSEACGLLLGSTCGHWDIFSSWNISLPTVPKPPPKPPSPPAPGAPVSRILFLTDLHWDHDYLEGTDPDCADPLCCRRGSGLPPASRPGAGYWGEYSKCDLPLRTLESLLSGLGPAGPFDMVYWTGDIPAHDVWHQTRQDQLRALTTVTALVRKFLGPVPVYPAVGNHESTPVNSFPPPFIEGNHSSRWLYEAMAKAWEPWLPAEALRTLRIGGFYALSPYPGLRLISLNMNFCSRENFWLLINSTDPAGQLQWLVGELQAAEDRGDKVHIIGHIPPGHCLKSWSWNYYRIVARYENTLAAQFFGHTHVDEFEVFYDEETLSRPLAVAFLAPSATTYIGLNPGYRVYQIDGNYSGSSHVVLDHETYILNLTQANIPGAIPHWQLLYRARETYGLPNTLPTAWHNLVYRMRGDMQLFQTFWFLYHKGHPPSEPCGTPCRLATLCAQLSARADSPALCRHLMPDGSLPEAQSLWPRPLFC
Test: Inhibition of human recombinant ASM (His62 to Pro628 residues) using HMU-PC as substrate incubated for 2 hrs by fluorescence based analysis

IC50: 1200 nM
Structure (SMILES): CCCCCCCCCCOc1cc(C(=O)NO)ccc1OC
